Laboratory results taken from US6992103B2, “Benzamide derivatives, processes for their preparation, and their pharmaceutical use” (SmithKline Beecham P.L.C., priority 2001, dated 2006).
Where two headings read alike, the source gives them in different places.

Tests used:
Format in all cases: biochemical
[1] = target: Cathepsin D (Homo sapiens, UniProt P07339); experiment: Cathepsin D Inhibitory Assay (FAM-SEVNLDAEFK-TAMRA substrate cleavage, fluorescence); conditions: Assay (III)
Experimental: (II) Cathepsin D Inhibitory Assay
(§1) For each compound being assayed, in a 384 well plate, is added:
(§2) a) 1 μl of a DMSO solution of the test compound (IC50 curve uses ten 1 in 2 serial dilutions from 500 μM).
(§3) b) 10 μl of substrate (FAM-SEVNLDAEFK-TAMRA) solution in buffer. This is prepared by diluting 2 ml of a 2 mM DMSO solution of the substrate into 400 ml of buffer (100 mM Sodium acetate pH=4.5, 1 l Milli-Q water, 0.06% Triton X-100 (0.5 ml/l), pH adjusted to 4.5 using glacial acetic acid). c) 10 μl enzyme solution. This is prepared by diluting 1.6 ml of a 200 unit/ml (in 10 mM HCl) enzyme solution into 398.4 ml of buffer (prepared as above).
(§4) Blank wells (enzyme solution replaced by buffer) are included as controls on each plate. Wells are incubated for 1 h at room temperature and fluorescence read using a Tecan Ultra Fluorimeter/Spectrophotometer (485 nm excitation, 535 nm emission).

[2] = target: T1, Asp-1 (Homo sapiens, UniProt Q9Y5Z0); experiment: Asp-1 Inhibitory Assay (FAM-[SEVNLDAEFK]-TAMRA substrate cleavage, fluorescence); conditions: Assay (II), pH 4.5, 2 h room temperature
T1 sequence (Q9Y5Z0 63-518): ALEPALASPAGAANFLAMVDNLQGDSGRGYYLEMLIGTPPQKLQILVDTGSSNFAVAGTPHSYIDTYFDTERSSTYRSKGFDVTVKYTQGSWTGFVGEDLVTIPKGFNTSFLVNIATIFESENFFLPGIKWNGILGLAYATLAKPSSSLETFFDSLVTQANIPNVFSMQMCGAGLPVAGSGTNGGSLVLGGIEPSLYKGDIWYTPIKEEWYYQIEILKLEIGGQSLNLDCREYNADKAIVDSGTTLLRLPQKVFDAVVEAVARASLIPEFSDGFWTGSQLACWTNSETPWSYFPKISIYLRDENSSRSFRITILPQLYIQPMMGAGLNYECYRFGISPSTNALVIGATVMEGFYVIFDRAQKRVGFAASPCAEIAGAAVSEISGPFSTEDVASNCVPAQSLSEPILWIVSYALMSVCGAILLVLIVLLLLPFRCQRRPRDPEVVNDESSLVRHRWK
Experimental: (II) Asp-1 Inhibitory Assay
as §1, §2
b) 10 μl of substrate (FAM-[SEVNLDAEFK]-TAMRA) solution in buffer. This is prepared by diluting 2 ml of a 2 mM DMSO solution of the substrate into 400 ml of buffer (100 mM Sodium acetate pH=4.5, 1 l Milli-Q water, 0.06% Triton X-100 (0.5 ml/l), pH adjusted to 4.5 using glacial acetic acid). c) 10 μl enzyme solution. This is prepared by diluting 4 ml of a 6.3 μM enzyme solution into 496 ml of buffer (100 mM Sodium acetate pH=4.5, 40 mM sodium chloride, 900 ml Milli-Q water, 100 ml glycerol, 0.2% CHAPS (2 g/l), pH adjusted to 4.5 using glacial acetic acid).
Blank wells (enzyme solution replaced by buffer) are included as controls on each plate. Wells are incubated for 2 h at room temperature and fluorescence read using a Tecan Ultra Fluorimeter/Spectrophotometer (485 nm excitation, 535 nm emission).

[3] = target: Asp-2 (Homo sapiens, UniProt P56817); experiment: Asp-2 Inhibitory Assay (FAM-[SEVNLDAEFK]-TAMRA substrate cleavage, fluorescence); conditions: Assay (I)
Experimental: (I) Asp-2 Inhibitory Assay
as §1, §2
as §3, with “(FAM-[SEVNLDAEFK]-TAMRA)” for “(FAM-SEVNLDAEFK-TAMRA)”, “acid). Aminomethyl fluorescein (FAM) and tetramethyl rhodamine (TAMRA) are fluorescent molecules which co-operate to emit fluorescence at 535 nm upon cleavage of the SEVNLDAEFK peptide.” for “acid).”, “16” for “1.6”, “500 nM” for “200 unit/ml (in 10 mM HCl)”, “384” for “398.4”
as §4

[4] = pH 4.5, 1 h room temperature, read-out: Cat. D IC50
[5] = pH 4.5, 1 h room temperature, read-out: Asp-2 IC50
[6] = range given for a group of Examples, read-out: range of inhibition (CatD)
[7] = range given for a group of Examples, read-out: range of inhibition (Asp-2)

Chain of Asp-2 (P56817 46-501): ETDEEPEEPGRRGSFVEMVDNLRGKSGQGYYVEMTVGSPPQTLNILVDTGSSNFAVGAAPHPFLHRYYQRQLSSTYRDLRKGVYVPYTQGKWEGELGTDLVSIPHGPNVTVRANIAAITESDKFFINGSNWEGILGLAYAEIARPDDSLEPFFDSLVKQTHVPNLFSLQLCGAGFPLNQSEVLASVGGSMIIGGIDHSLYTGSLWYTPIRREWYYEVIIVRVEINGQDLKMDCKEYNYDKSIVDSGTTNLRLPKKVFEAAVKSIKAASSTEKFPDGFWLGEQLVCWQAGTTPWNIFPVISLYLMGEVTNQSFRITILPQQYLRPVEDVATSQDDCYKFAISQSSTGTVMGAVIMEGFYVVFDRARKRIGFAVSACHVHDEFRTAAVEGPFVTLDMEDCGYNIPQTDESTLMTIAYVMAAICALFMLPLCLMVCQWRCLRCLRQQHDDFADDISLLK
Chain of Cathepsin D (P07339 65-412, species assumed): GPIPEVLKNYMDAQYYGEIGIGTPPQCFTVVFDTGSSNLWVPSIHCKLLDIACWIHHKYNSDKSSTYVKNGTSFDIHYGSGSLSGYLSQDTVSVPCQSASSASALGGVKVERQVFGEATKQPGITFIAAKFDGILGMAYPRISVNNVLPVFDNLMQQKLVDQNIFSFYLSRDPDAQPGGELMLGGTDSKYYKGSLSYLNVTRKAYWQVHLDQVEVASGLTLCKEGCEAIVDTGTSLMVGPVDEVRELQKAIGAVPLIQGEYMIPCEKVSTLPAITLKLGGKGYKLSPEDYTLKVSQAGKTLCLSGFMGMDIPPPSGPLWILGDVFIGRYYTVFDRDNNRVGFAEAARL

IC50 [1, 4] [nM]	IC50 [2] [nM]	IC50 [3, 5] [nM]	IC50 [1, 6] [nM]	IC50 [3, 7] [nM]	Structure (SMILES)
13000	6000	600	–	–	C[C@H](C[C@H](O)[C@H](Cc1ccccc1)NC(=O)c1ccc(F)c(N2CCCC2=O)c1)C(=O)NCCC(C)(C)C (stereo in doubt) [Example E1, N-[(1S,2S,4R)-1-Benzyl-4-(3,3-dimethylbutylcarbamoyl)-2-hydroxypentyl]-4-fluoro-3-(2-oxopyrrolidin-1-yl)-benzamide]
–	–	–	340 to 3000	2 to 30	CC(=O)Nc1cc(C(=O)N[C@@H](Cc2ccccc2)[C@@H](O)C[C@@H](C)C(=O)NC2CC3CCC2C3)cc(N2CCCC2=O)c1 (stereo partly drawn) [Example E10, 3-Acetylamino-N-[(1S,2S,4R)-1-benzyl-4-(bicyclo[2.2.1]hept-2-ylcarbamoyl)-2-hydroxypentyl]-5-(2-oxopyrrolidin-1-yl)benzamide]
2900	420	60	–	–	C=CCOc1cc(C(=O)N[C@@H](Cc2ccccc2)[C@@H](O)C[C@@H](C)C(=O)NCCC(C)(C)C)cc(N2CCCC2=O)c1 [Example E3, 3-Allyloxy-N-[(1S,2S,4R)-1-benzyl-4-(3,3-dimethylbutylcarbamoyl)-2-hydroxypentyl]-5-(2-oxopyrrolidin-1-yl)-benzamide]
–	–	–	340 to 3000	2 to 30	C[C@H](C[C@H](O)[C@H](Cc1ccccc1)NC(=O)c1cccc(N2CCCC2=O)c1F)C(=O)NC1CC2CCC1C2 (stereo partly drawn) [Example E21, N-[(1S,2S,4R)-1-Benzyl-4-(bicyclo[2.2.1]hept-2-ylcarbamoyl)-2-hydroxypentyl]-2-fluoro-3-(2-oxopyrrolidin-1-yl)-benzamide]
–	–	–	340 to 3000	2 to 30	CC(C)Oc1cc(C(=O)N[C@@H](Cc2ccccc2)[C@@H](O)C[C@@H](C)C(=O)NC2CCC2)cc(N2CCCC2=O)c1 [Example E26, N-[(1S,2S,4R)-1-Benzyl-4-(cyclobutylcarbamoyl)-2-hydroxypentyl]-3-isopropoxy-5-(2-oxopyrrolidin-1-yl)benzamide]
–	–	–	340 to 3000	2 to 30	C[C@H](C[C@H](O)[C@H](Cc1ccccc1)NC(=O)c1cc(N2CCCC2=O)cc(N2CCCC2=O)c1F)C(=O)NC1CC2CCC1C2 (stereo partly drawn) [Example E22, N-[(1S,2S,4R)-1-Benzyl-4-(bicyclo[2.2.1]hept-2-ylcarbamoyl)-2-hydroxypentyl]-2-fluoro-3,5-bis-(2-oxopyrrolidin-1-yl)benzamide]
–	–	–	340 to 3000	2 to 30	C[C@H](C[C@H](O)[C@H](Cc1ccccc1)NC(=O)c1cc(N2CCCC2=O)cc(N2CCCC2=O)c1F)C(=O)NC1CCC(C(C)(C)C)CC1 (stereo partly drawn) [Example E32, N-[(1S,2S,4R)-1-Benzyl-4-(4-tert-butylcyclohexylcarbamoyl)-2-hydroxypentyl]-2-fluoro-3,5-bis-(2-oxopyrrolidin-1-yl)benzamide]
–	–	–	340 to 3000	2 to 30	CC(C)Oc1cc(C(=O)N[C@@H](Cc2ccccc2)[C@@H](O)C[C@@H](C)C(=O)NC2CC3CCC2C3)cc(N2CCCC2=O)c1 (stereo partly drawn) [Example E14, N-[(1S,2S,4R)-1-Benzyl-4-(bicyclo[2.2.1]hept-2-ylcarbamoyl)-2-hydroxypentyl]-3-isopropoxy-5-(2-oxopyrrolidin-1-yl)benzamide]
1800	150	35	–	–	CCCOc1cc(C(=O)N[C@@H](Cc2ccccc2)[C@@H](O)C[C@@H](C)C(=O)NCCC(C)(C)C)cc(N2CCCC2=O)c1 [Example E4, N-[(1S,2S,4R)-1-Benzyl-4-(3,3-dimethylbutylcarbamoyl)-2-hydroxypentyl]-3-(2-oxopyrrolidin-1-yl)-5-propoxybenzamide]
–	–	–	340 to 3000	2 to 30	C[C@H](C[C@H](O)[C@H](Cc1ccccc1)NC(=O)c1cc(N2CCCC2=O)cc(N2CCCC2=O)c1)C(=O)NC1CC2CCC1C2 (stereo partly drawn) [Example E8, N-[(1S,2S,4R)-1-Benzyl-4-(bicyclo[2.2.1]hept-2-ylcarbamoyl)-2-hydroxypentyl]-3,5-bis-(2-oxopyrrolidin-1-yl)benzamide]
